In patent publication EP2992880A1, “Use of heme oxygenase 1 inducers and cannabinoid 2 receptor or delta-opioid receptor agonists in inflammatory pain” (Fundació Institut de Recerca de l'Hospital de la Santa Creu …, priority 2014, dated 2016):
Read-outs that look alike come from different tables or passages of the source.

Columns and labels:
[1] = test system: HO-1; test: Western blot of HO-1 protein in dorsal root ganglia of CFA-injected mice; assay type: in vivo; details: CoPP treatment of CFA-injected mice; P < 0.001 (Fig. 6)
Procedure: (§1) Animals were sacrificed at 0 days (naive) and after CFA-injection by cervical dislocation. Tissues from the ipsilateral section of the dorsal root ganglia (L3 to L5) were removed immediately after killing, frozen in liquid nitrogen, and stored at -80°C until assay. Samples from five animals were pooled into one experimental sample to obtain enough protein levels for performing Western blot analysis. The HO-1, DOR and CB2R protein levels were analyzed by Western blot. […]
(§2) The proteins were electrophoretically transferred onto PVDF membrane for 120 min, blocked with PBS + 5% nonfat dry milk, and subsequently incubated overnight at 4°C with polyclonal rabbit anti-HO-1 (1:300, Stressgen, Ann Arbor, MI), anti-DOR (1:2500, Chemicon-Millipore) or anti-CB2R (1:500, Abcam, Cambridge, United Kingdom). The proteins were detected by a horseradish peroxidase-conjugated anti-rabbit secondary antibody (GE Healthcare, Little Chalfont, Buckinghamshire, United Kingdom) and visualized with chemiluminescence reagents (ECL kit; GE Healthcare) and by exposure onto hyperfilm (GE Healthcare). The intensity of blots was quantified by densitometry. […]
(§3) Finally, in another set of experiments we evaluated the effects of CoPP on the expression of HO-1, DOR and CB2R in the ipsilateral site of the dorsal root ganglia from CFA-injected mice, by using Western blot assay. […]

[2] = test system: DOR; test: Western blot of DOR protein in dorsal root ganglia of CFA-injected mice; assay type: in vivo; details: CoPP treatment of CFA-injected mice; P < 0.001 (Fig. 7)
Procedure: as §1, §2, §3

[3] = test system: CB2R; test: Western blot of CB2R protein in dorsal root ganglia of CFA-injected mice; assay type: in vivo; details: CoPP treatment of CFA-injected mice (Fig. 8)
Procedure: as §1, §2, §3

[4] = neuropathic pain; cited from earlier work
[5] = inflammatory pain; cited from earlier work
[6] = visceral pain; cited from earlier work

cobalt (III) protoporphyrin IX chloride [CoPP]
dorsal root ganglia expression of HO-1 [1]: significantly increased
decreased protein levels of DOR in the dorsal root ganglia from CFA-injected mice [2]: avoided
peripheral expression of CB2R in the dorsal root ganglia from CFA-injected mice [3]: remains unaltered
effect of CoPP on the antinociceptive effect of DPDPE [4]: decreased
effect of CoPP on the antinociceptive effect of JWH-015 [4]: decreased
effect of CoPP on the antinociceptive effect of morphine [4]: increases
effect of CoPP on the antinociceptive effect of morphine [5]: increases
effect of CoPP on the antinociceptive effect of morphine treatment [6]: does not alter
